pIC50, pKd: −log10 of the molar value. “And” between values parts separate entries of the source, which are not always exact repeats. Identical values can stand only once. Where no end group is shown, it is not given here.
Legend:
Bcl-B = biological target: T1, Bcl-B (Homo sapiens, UniProt Q9HD36); settings: read-out: IC50 displacing BH3 peptides; cited from earlier work
T1 sequence (Q9HD36 1-204): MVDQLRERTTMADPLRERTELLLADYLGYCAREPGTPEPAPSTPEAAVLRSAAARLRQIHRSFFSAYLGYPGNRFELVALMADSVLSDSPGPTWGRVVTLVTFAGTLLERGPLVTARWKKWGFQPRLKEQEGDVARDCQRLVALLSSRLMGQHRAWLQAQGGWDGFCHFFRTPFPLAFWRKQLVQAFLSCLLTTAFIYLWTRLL

Bfl-1 = biological target: T2, Bfl-1 (Homo sapiens, UniProt Q16548); settings: read-out: IC50 displacing BH3 peptides; cited from earlier work
T2 sequence (Q16548 1-175): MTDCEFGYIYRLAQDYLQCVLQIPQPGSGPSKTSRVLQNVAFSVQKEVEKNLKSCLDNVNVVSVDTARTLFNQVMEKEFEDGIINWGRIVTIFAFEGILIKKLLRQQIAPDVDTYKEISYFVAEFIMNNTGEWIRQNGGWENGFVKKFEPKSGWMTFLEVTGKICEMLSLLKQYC

Bcl-XL = Bcl-XL (Homo sapiens, UniProt Q07817); settings: read-out: IC50 displacing BH3 peptides; cited from earlier work
Chain of Bcl-XL (Q07817 whole entry, species assumed): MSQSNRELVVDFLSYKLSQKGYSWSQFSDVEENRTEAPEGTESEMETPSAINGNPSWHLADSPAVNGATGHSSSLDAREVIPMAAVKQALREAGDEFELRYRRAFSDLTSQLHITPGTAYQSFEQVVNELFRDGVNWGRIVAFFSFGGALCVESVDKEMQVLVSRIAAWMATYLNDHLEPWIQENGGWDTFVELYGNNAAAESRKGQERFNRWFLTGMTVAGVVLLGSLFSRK

Jurkat cells = experiment: Cytoplasmic Ca2+ elevation by digital imaging in Jurkat cells; format: cell-based
Description: These compounds, along with 320 additional compounds chosen by virtual screening, were screened for hit confirmation. Also, a secondary assay for compound effect on apoptosis was performed in KMS-12-BM cells. […] Thus, a total of 39 compounds were chosen for triplicate confirmation screening. The findings are schematically summarized by means of the heat map in FIG. 5. An ID number, assigned by the chemist(s) who synthesized the compounds, is located to the left. This ID is for identification purposes only and does provide other information about the compound. Columns 1 and 2 represent caspase activity, measured after 24 hr of treatment at UCDDC, normalized to the highest caspase activity observed. Activity levels range from low, represented by the color purple, to high, represented by the color red. Considerable variation among different compounds and between the myeloma lines is observed evident. […] In addition, the same assay was used to test the sensitivity of primary human CLL cells to each compound, as summarized in lane 5. The effect of each compound on intracellular Ca^2+ concentration was measured by digital imaging and results are shown as percentage of cells responding with a significant (more than twofold above baseline) elevation of cytoplasmic Ca^2+ concentration. […] An example of Ca2^+ elevation in response to one of the compounds is illustrated in FIG. 6. […]

multiple myeloma lines = experiment: Cell death induction in multiple myeloma lines (MTS assay); format: cell-based, human
Description: (§1) Of the compounds tested, 148 were identified as hits at 6.5 μM in the primary single-point screen with activity>30% relative to apoptosis induced by 10 μM BIRD-2 in NCI-H929 cells. These compounds, along with 320 additional compounds chosen by virtual screening, were screened for hit confirmation. Also, a secondary assay for compound effect on apoptosis was performed in KMS-12-BM cells. […] Thus, a total of 39 compounds were chosen for triplicate confirmation screening. The findings are schematically summarized by means of the heat map in FIG. 5. An ID number, assigned by the chemist(s) who synthesized the compounds, is located to the left. This ID is for identification purposes only and does provide other information about the compound. Columns 1 and 2 represent caspase activity, measured after 24 hr of treatment at UCDDC, normalized to the highest caspase activity observed. Activity levels range from low, represented by the color purple, to high, represented by the color red. Considerable variation among different compounds and between the myeloma lines is observed evident. Columns 3 and 4 in the heat map (FIG. 5) summarize results of cell death assays testing cell death induction in the same myeloma lines in the Distelhorst laboratory using the MTS assay. In addition, the same assay was used to test the sensitivity of primary human CLL cells to each compound, as summarized in lane 5. The effect of each compound on intracellular Ca^2+ concentration was measured by digital imaging and results are shown as percentage of cells responding with a significant (more than twofold above baseline) elevation of cytoplasmic Ca^2+ concentration. The choice of the Jurkat line for these Ca^2+ measurements was based on our extensive evidence that BIRD-2 binds to the BH4 domain of Bcl-2 endogenously present in this line and that disruption of Bcl-2-IP3R interaction by BIRD-2 elevates cytoplasmic Ca^2+ in this line. An example of Ca2^+ elevation in response to one of the compounds is illustrated in FIG. 6.

primary human CLL cells [1] = experiment: Cell death induction in primary human CLL cells (MTS assay); format: cell-based
Description: as §1

BH4 domain of Bcl-2 = biological target: T3, BH4 domain of Bcl-2 (Homo sapiens, UniProt P10415); experiment: Surface plasmon resonance (Biacore) binding to the BH4 domain of Bcl-2; settings: SPR; for pKd: dose response / full binding curve
T3 construct: borders or tags not given
T3 sequence (P10415 6-30 limits assumed): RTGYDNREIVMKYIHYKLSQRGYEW
Description: The next step in compound validation was to perform surface plasmon resonance (Biacore) to test for binding to the BH4 domain of Bcl-2. […] To date, we have positive evidence of compound binding to the BH4 domain in 4 compounds tested by SPR (FIG. 8). Testing of the remaining compounds from the 14 lead compounds is in progress.

[2] = test system: small cell lung cancer (SCLC) cells; experiment: Cytotoxicity in small cell lung cancer (SCLC) lines; format: cell-based
[3] = test system: normal human peripheral blood lymphocytes; experiment: Toxicity toward normal cells; format: cell-based
primary human CLL cells [4] = experiment: Ca2+ elevation in primary CLL cells; format: cell-based
[5] = test system: KMS-12-BM human myeloma cells; experiment: Combination with ABT-263, cell viability by CellTiter-Glo assay; format: cell-based; settings: fixed concentration ratio, at several compound concentrations, CI<1 synergistic
Description: Since Bcl-2 works by two distinct mechanisms to inhibit apoptosis, we investigated the possibility that 854697 and ABT-263, which selectively target each of these mechanisms, might synergistically kill cancer cells. […] Combination indices (CI) were computed at each concentration to determine whether the increased cytotoxicity is due to an additive (CI=1) or synergistic (CI<1) effect. At several compound concentrations, the CI was <1, indicating synergistic cell death induction when these agents that act by different mechanisms are combined. These findings indicate additional value in developing 854697 as a novel therapeutic agent for Bcl-2-positive malignancies.

[6] = test system: H2171 Small cell lung cancer (SCLC) cells; experiment: BIRD-2/ABT-263 combination cytotoxicity in SCLC cells; format: cell-based; settings: 24 hr, FIG. 4
Description: FIG. 4 is a graph illustrating BIRD-2/ABT-263 synergism. H2171 Small cell lung cancer (SCLC) cells treated from 24 hr with 5 μM BIB1 and 39 nM ABT-263 alone or together.

[7] = test system: human myeloma cell lines (HMCLs); experiment: Apoptosis induction in human myeloma cell lines (HMCLs); format: cell-based; settings: including two lines resistant to ABT-737, ABT-263 and ABT-199
Description: Furthermore, one of the BIRD-2-sensitive lines, NCI-H929, corresponds to a multiple molecular subgroup that is resistant to BH3-mimetic agents and belongs to a poor prognosis category associated with chromosomal translocation. Thus, although BH3-mimetic agents represent a major advance in cancer treatment, resistance to these agents occurs and limits their efficacy, not only in multiple myeloma but other lymphoid malignancies as well. The resistance problem is not unique to HMCLs, but is illustrated by studies of ABT-737 and ABT-199 in primary MM cells where resistance was detected in more than half of primary patient samples tested. Therefore, these findings indicate the potential therapeutic importance of targeting both of Bcl-2's anti-apoptotic mechanisms. Adding to the potential value of targeting Bcl-2-IP3R interaction for treatment of multiple myeloma is the evidence reported here of synergistic activity when combined with chemotherapeutic agents typically employed in multiple myeloma treatment, and with ABT-263 and ABT-199.

Compound: Cc1cc2c(C(C)C)c(O)c(O)c(C=O)c2c(O)c1-c1c(C)cc2c(C(C)C)c(O)c(O)c(C=O)c2c1O [Gossypol, 1,6,7,1′,6′,7′-Hexahydroxy-5,5′-diisopropyl-3,3′-dimethyl-[2,2′]binaphthalenyl-8,8′-dicarbaldehyde]
- pIC50 (Bcl-B): ~6.30
- pIC50 (Bfl-1): ~6.30
- pIC50 (Bcl-XL): ~6.30

Compound: COc1ccc2c(c1)CC[C@@H]1[C@@H]2CC[C@]2(C)[C@@H](NCCCCCCN3C(=O)C=CC3=O)CC[C@@H]12 [U73122, reference compound]
- effect on 854697-induced Ca2+ elevation (Jurkat cells; Jurkat cells pretreated 30 min with U73122): completely blocked

Compound: O=C(/C=C/c1ccc(Cl)c(Cl)c1)NN1CCOC1=O [compound 96505]
- cell death induction (multiple myeloma lines): inducing cell death
- cell death induction (primary human CLL cells [1]): inducing cell death
- binding to the BH4 domain of Bcl-2 (BH4 domain of Bcl-2): bind to the BH4 domain of Bcl-2
- pKd (BH4 domain of Bcl-2): 4.62

Compound: CSc1c(C#N)c(N)nc(SCC(=O)c2ccc(OC(F)F)cc2)c1C#N [compound 197392]
- cell death induction (multiple myeloma lines): inducing cell death
- cell death induction (primary human CLL cells [1]): inducing cell death
- binding to the BH4 domain of Bcl-2 (BH4 domain of Bcl-2): bind to the BH4 domain of Bcl-2

Compound: CN(C)C(=O)OCC(Cc1ccc2ccccc2c1)N1CCN(C(=O)C(N)Cc2ccc(F)cc2)C(CO)C1 (centres unmarked) [compound 854697]
- killing of small cell lung cancer cells [2]: kills small cell lung cancer cells
- toxic activity toward normal cells [3]: does not have toxic activity toward normal cells
- cell death induction (multiple myeloma lines): inducing cell death
- cell death induction (primary human CLL cells [1]): inducing cell death
- Ca2+ elevation (primary human CLL cells [4]): induces Ca^2+ elevation
- Combination index (CI) with ABT-263 [5]: < 1
- binding to the BH4 domain of Bcl-2 (BH4 domain of Bcl-2): bind to the BH4 domain of Bcl-2
- pKd (BH4 domain of Bcl-2): 5.25 and 5.24
- Ca2+ elevation (Jurkat cells; Jurkat cells): inducing IP3R-mediated Ca^2+ elevation

Compound: RKKRRQRRRGGNVYTEIKCNSLLPLAAIVRV [BIRD-2]
- selective cytotoxicity ([2]; 15 SCLC lines treated): greater than two-fold selective cytotoxicity in 11 of the lines
- cytotoxicity in combination with ABT-263 [6]: synergistic cytotoxicity
- apoptosis induction [7]: induces apoptosis
